For 13 compounds, IC50 results are on record in US12590099B2, “Inhibitors of histone deacetylase useful for the treatment or prevention of HIV infection” (Merck Sharp & Dohme LLC, priority 2018, dated 2026).

Format in all cases: biochemical
For one assay, the target named is T1, Recombinant human HDAC1 (Homo sapiens, UniProt Q13547).
T1 construct: FLAG (C); made in house
The assay can be described thus: Human HDAC enzyme inhibitor Fluor-de-Lys assay, HDAC1. As to conditions: recombinant human HDAC1, Fluor-de-Lys assay. In short, it runs like this:
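Fluor-de-Lys format at room temperature (23° C.): compounds titrated 10-point, 1:3, preincubated with HDAC before substrate addition; HDAC1 run at 0.3 nM enzyme with 20 μM BML-KI104. Developer with excess HDAC inhibitor ends the reaction, and trypsin-liberated AMC fluorescence is the read-out.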

In the next assay the target is T2, Recombinant human HDAC8 (Homo sapiens, UniProt Q9BY41).
T2 construct: purchased Enzo Life Sciences BML-SE145-0100
T2 sequence (Q9BY41 1-377): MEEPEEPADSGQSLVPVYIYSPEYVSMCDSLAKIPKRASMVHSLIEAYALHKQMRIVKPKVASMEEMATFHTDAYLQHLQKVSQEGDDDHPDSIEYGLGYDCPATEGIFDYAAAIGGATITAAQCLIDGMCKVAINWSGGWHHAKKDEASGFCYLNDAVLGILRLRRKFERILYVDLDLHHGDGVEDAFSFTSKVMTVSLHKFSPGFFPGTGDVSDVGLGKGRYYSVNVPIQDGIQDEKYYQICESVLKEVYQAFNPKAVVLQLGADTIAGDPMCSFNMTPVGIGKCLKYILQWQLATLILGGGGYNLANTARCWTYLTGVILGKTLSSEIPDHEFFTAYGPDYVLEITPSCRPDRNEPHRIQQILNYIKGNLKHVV
In words: Human HDAC enzyme inhibitor Fluor-de-Lys assay, HDAC8. The note with it: recombinant human HDAC8, Fluor-de-Lys assay.

In the next assay the target is T3, HDAC6 (Homo sapiens, UniProt Q9UBN7).
T3 sequence (Q9UBN7 1-1215): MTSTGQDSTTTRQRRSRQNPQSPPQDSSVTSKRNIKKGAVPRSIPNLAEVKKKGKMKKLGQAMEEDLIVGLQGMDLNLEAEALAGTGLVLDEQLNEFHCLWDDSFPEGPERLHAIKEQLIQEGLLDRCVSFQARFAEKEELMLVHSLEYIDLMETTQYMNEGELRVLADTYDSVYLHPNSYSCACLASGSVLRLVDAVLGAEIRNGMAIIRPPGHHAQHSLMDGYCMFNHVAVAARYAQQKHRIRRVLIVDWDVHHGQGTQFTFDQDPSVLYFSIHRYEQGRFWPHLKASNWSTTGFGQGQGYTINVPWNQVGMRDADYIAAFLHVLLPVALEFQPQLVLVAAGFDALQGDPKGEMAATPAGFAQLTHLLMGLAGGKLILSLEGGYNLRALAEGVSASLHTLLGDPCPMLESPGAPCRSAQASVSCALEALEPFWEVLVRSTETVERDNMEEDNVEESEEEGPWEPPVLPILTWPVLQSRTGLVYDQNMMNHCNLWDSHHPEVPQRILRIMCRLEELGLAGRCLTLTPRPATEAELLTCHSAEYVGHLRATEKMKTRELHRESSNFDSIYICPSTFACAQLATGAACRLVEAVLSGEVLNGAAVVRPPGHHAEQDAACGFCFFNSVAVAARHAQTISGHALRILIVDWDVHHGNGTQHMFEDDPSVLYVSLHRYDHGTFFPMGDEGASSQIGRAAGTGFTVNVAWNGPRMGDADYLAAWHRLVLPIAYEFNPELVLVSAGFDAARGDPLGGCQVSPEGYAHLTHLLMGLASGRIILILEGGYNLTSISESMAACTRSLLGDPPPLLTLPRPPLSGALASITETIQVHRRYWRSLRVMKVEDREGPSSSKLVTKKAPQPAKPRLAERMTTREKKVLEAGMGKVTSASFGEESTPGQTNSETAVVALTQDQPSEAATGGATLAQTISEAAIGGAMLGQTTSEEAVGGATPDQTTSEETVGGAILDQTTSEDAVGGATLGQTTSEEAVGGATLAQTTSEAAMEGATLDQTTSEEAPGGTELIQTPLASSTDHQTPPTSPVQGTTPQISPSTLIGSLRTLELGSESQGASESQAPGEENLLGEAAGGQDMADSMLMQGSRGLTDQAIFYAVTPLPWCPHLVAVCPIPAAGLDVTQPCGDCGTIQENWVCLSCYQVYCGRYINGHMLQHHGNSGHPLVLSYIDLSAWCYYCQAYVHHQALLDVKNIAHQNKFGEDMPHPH
The assay can be described thus: Human HDAC enzyme inhibitor Fluor-de-Lys assay, HDAC6. The note with it: HDAC6, Fluor-de-Lys assay.

The next assay deals with T4, Recombinant human HDAC2 (Homo sapiens, UniProt Q92769).
T4 construct: Full length human HDAC2-FLAG was expressed in baculovirus infected Sf9 cells; FLAG (C); made in house; host or cells: Sf9 (baculovirus)
In words: Human HDAC enzyme inhibitor Fluor-de-Lys assay, HDAC2. The note with it: recombinant human HDAC2, Fluor-de-Lys assay. Put shortly:
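Fluor-de-Lys format at room temperature (23° C.): compounds titrated 10-point, 1:3, preincubated with HDAC before substrate addition. Developer with excess HDAC inhibitor ends the reaction, and trypsin-liberated AMC fluorescence is the read-out.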

One may read the IC50 as the point on the concentration scale where inhibition reaches its midpoint.

T4 sequence (Q92769 whole entry): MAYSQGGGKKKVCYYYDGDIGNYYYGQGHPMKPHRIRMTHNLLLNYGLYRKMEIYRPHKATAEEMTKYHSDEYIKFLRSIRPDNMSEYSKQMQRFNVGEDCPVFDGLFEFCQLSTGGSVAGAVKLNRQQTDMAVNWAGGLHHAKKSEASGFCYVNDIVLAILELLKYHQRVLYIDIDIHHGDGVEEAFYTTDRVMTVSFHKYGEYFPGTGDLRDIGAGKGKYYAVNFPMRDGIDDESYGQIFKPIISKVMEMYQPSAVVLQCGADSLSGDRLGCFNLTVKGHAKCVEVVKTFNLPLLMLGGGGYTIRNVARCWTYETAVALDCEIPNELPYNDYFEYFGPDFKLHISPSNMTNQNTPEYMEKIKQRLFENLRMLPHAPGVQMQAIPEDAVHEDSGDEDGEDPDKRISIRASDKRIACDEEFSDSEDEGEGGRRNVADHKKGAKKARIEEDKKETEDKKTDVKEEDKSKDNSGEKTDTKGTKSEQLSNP
T1 sequence (Q13547 whole entry): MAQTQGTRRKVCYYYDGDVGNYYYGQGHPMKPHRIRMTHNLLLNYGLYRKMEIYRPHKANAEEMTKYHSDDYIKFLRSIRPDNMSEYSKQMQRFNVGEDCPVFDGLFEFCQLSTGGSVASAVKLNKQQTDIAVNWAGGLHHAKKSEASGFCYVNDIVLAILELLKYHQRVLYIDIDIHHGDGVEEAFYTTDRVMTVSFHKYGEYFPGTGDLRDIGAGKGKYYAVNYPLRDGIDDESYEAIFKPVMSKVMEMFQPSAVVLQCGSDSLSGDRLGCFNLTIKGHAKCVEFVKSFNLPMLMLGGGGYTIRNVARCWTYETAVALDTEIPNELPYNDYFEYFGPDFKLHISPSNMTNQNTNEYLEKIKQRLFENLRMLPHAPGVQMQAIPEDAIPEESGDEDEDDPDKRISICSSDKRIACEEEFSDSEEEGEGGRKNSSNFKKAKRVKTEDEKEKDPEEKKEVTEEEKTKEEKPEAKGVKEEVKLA

In the case of `CCC(=O)CCCCC[C@H](NC(=O)[C@H]1CC12CCN(C)CC2)c1ncc(-c2cc3ocnc3cc2OC)o1` [Compound 408], the IC50 on Recombinant human HDAC1 is 3.82 nM; on Recombinant human HDAC8, over 900 nM; at HDAC6 it was 647 nM; at Recombinant human HDAC2 it was 36.1 nM.
For `CCC(=O)CCCCC[C@H](NC(=O)[C@H]1CC[C@]2(CC1)OC(=O)c1cccnc12)c1nnc(-c2cc3ccccc3nc2OC)o1` [Compound 368], in that order: 50.5 nM, 21700 nM, 2380 nM and 149 nM.
For `CCC(=O)CCCCC[C@H](NC(=O)[C@H]1CC12CCN(CC1CC1)CC2)c1ncc(-c2cc3ccc(=O)n(C)c3cc2F)o1` [Compound 400] the same measures were 6.41 nM, over 900 nM, over 900 nM and 39.7 nM.
For `CCC(=O)CCCCC[C@H](NC(=O)[C@H]1CC12CCN(C)CC2)c1ncc(-c2cc3ccc(N(C)C)nc3cc2OC)o1` [Compound 406] the same measures were 0.83 nM, 300 nM, over 900 nM and 2.5 nM.
For `CCCC(=O)CCCCC[C@H](NC(=O)[C@H]1CC12CCN(CC1CC1)CC2)c1ncc(-c2cc3ccc(C)nc3cc2OC)[nH]1` [Compound 416], the concentration for half-maximal inhibition (IC50) at Recombinant human HDAC1 was under 1.58 nM; on Recombinant human HDAC8 it was over 900 nM; against HDAC6 it was over 900 nM; at Recombinant human HDAC2, 4.5 nM.
`CCC(=O)CCCCC[C@H](NC(=O)C1CC12CCOCC2)c1ncc(-c2cc3ccc(C)nc3cc2OC)o1` (single isomer, unassigned) [Compound 410]: the IC50 on Recombinant human HDAC1 was 17.5 nM; at Recombinant human HDAC8, over 900 nM; against HDAC6, over 900 nM; on Recombinant human HDAC2, 143 nM.
With `CCC(=O)CCCCC[C@H](NC(=O)C1CC12CCOCC2)c1ncc(-c2cc3ccc(C)nc3cc2OC)o1` (single isomer, unassigned) [Compound 409], the IC50 on Recombinant human HDAC1 was 10.5 nM; at Recombinant human HDAC8, over 900 nM; at HDAC6, over 900 nM; on Recombinant human HDAC2, 100 nM.
Consider `CCC(=O)CCCCC[C@H](NC(=O)[C@H]1CC[C@@]2(CC1)OC(=O)c1ccncc12)c1ncc(-c2ccccc2)[nH]1` [Compound 372], for which the concentration for half-maximal inhibition (IC50) at Recombinant human HDAC1 was 92.5 nM; on Recombinant human HDAC8, 7730 nM; at HDAC6, 10200 nM; at Recombinant human HDAC2, 416 nM.
Turning to `CCC(=O)CCCCC[C@H](NC(=O)C1=NOC2(CCN(S(C)(=O)=O)CC2)C1)c1ncc(-c2ccccc2)[nH]1` [Compound 383], the IC50 on Recombinant human HDAC1 was determined as 96.5 nM; at Recombinant human HDAC8, 8960 nM; against HDAC6 it was 16100 nM; at Recombinant human HDAC2, 427 nM.
As for `CCC(=O)CCCCCC(CC)(NC(=O)[C@H]1CC12CCN(CC1CC1)CC2)c1nc(-c2cc3ccc(C)nc3cc2OC)c[nH]1` (stereo partly drawn) [Compound 420, (1S)-6-(cyclopropylmethyl)-N-{3-[4-(7-methoxy-2-methylquinolin-6-yl)-1H-imidazol-2-yl]-9-oxoundecan-3-yl}-6-azaspiro[2.5]octane-1-carboxamide], the half-inhibitory concentration (IC50) at Recombinant human HDAC1 was 484 nM; on Recombinant human HDAC8, over 900 nM; at HDAC6, over 900 nM; at Recombinant human HDAC2, 330 nM.
Take `CCC(=O)CCCCC[C@H](NC(=O)[C@H]1CC[C@@]2(CC1)OC(=O)c1cccnc12)c1nnc(-c2cc3ccccc3nc2OC)o1` [Compound 366]: the 50% inhibitory concentration (IC50) on Recombinant human HDAC1 was 89.4 nM; on Recombinant human HDAC8 it was over 45000 nM; against HDAC6, 2760 nM; on Recombinant human HDAC2 it was 321 nM.
For `CCC(=O)CCCCC[C@H](NC(=O)C1CC12CCOCC2)c1ncc(-c2cc3ccc(C)nc3cc2OC)[nH]1` (single isomer, unassigned) [Compound 407] the same measures were 0.9 nM, over 900 nM, over 900 nM and 20.2 nM.
For `CCCC(=O)CCCCC[C@H](N)c1ncc(-c2cc3ccc(C)nc3cc2OC)[nH]1` [Compound A30], in that order: 60.6 nM, 542 nM, over 900 nM and 304 nM.
